In US20140031227A1, “HERBICIDAL COMPOSITIONS COMPRISING 4-AMINO-3-CHLORO-5-FLUORO-6-(4-CHLORO-2-FLUORO-3-METHOXYPHENYL) PYRIDINE-2-CARBOXYLIC ACID OR A DERIVATIVE THEREOF AND GLYPHOSATE OR GLUFOSINATE” (DOW AGROSCIENCES LLC, priority 2012, published 2014):
Where a name gives a salt, the structure may show the parent alone.

How the values were obtained:
Assay type in all cases: in vivo
[1] = system: AVEFA (Avena fatua L., wild oat); assay: Example III postemergence foliar-applied mixtures, row crop weeds (corn, soybean), greenhouse: AVEFA
Experimental: (§1) Seeds or nutlets of the desired test plant species were planted in a soil matrix prepared by mixing a loam or sandy loam soil (e.g., 43 percent silt, 19 percent clay, and 38 percent sand, with a pH of about 8.1 and an organic matter content of about 1.5 percent) and calcareous grit in an 80 to 20 ratio. The soil matrix was contained in plastic pots with a surface area of 84.6 square centimters (cm^2) and a volume of 560 cubic centimeters (cm^3). […] The plants were grown for 7-31 days (d) in a greenhouse with an approximate 15 hour (h) photoperiod which was maintained at about 23-29° C. during the day and 22-28° C. during the night. Nutrients (Peters Excel® 15-5-15 5-Ca 2-Mg) and water were added on a regular basis and supplemental lighting was provided with overhead metal halide 1000-Watt lamps as necessary. The plants were employed for testing when they reached the first, second, or third true leaf stage.
Treatments consisted of the acid or esters of 4-amino-3-chloro-5-fluoro-6-(4-chloro-2-fluoro-3-methoxy-phenyl)pyridine-2-carboxylic acid (Compound A), each formulated as an
SC (suspension concentrate), and various herbicidal components alone and in combination. Forms of compound A were applied on an acid equivalent basis.
(§2) Other herbicidal components were applied on an acid equivalent or active ingredient basis and included the 5-enolpyruvylshikimate-3-phosphate synthase (EPSPS)-inhibiting herbicide, glyphosate dimethylamine salt, formulated as Durango DMA® and the glutamine synthase (GS)-inhibiting herbicide, glufosinate ammonium, formulated as Ignite® 280.
For treatments comprised of formulated compounds, measured amounts of compounds were placed individually in 25 mL glass vials and diluted in a volume of 1.5% (v/v) Agri-dex® crop oil concentrate to obtain 6× stock solutions. […] Application solutions were prepared by adding an appropriate amount of each stock solution (typically 2 mL) and diluted to the appropriate final concentrations with the addition of an aqueous mixture of 1.5% (v/v) crop oil concentrate and water so that the final spray solutions contained 1.25% (v/v) crop oil concentrate.
(§3) All stock solutions and applications solutions were visually inspected for compound compatibility prior to application. Compound requirements are based upon a 12 mL application volume at a rate of 187 liters per hectare (L/ha). Formulated compounds were applied to the plant material with an overhead Mandel track sprayer equipped with 8002E nozzles calibrated to deliver 187 L/ha over an application area of 0.503 square meters (m^2) at a spray height of 18 to 20 inches (46 to 50 cm) above the average plant canopy height. Control plants were sprayed in the same manner with the solvent blank.
(§4) The treated plants and control plants were placed in a greenhouse as described above and watered by sub-irrigation to prevent wash-off of the test compounds. After approximately 2 weeks, the condition of the test plants as compared with that of the untreated plants was determined visually and scored on a scale of 0 to 100 percent where 0 corresponds to no injury or growth inhibition and 100 corresponds to complete kill.
The following equation was used to calculate the expected activity of mixtures containing two active ingredients, A and B: […]

[2] = system: SETFA (Setaria faberi Herrm., giant foxtail); assay: Example IV postemergence foliar-applied mixtures, general weed control, greenhouse: SETFA
Experimental: as §1, with “Sun Gro Metro-Mix® 360 planting mixture, which typically has” for “a soil matrix prepared by mixing a loam or sandy loam soil (e.g., 43 percent silt, 19 percent clay, and 38 percent sand, with”, “6.0 to 6.8” for “about 8.1”, “30 percent,” for “1.5 percent) and calcareous grit in an 80 to 20 ratio. The soil matrix was contained”, “square” for “square centimters (cm^2) and a volume of 560 cubic”, “(cm^2).” for “(cm^3).”
(§5) Treatments consisted of the acid or the benzyl ester of 4-amino-3-chloro-5-fluoro-6-(4-chloro-2-fluoro-3-methoxy-phenyl)pyridine-2-carboxylic acid (Compound A), each formulated as an SC, and various herbicidal components alone and in combination. Forms of compound A were applied on an acid equivalent basis.
as §2
(§6) For treatments comprised of formulated compounds, measured amounts of compounds were placed individually in 25 mL glass vials and diluted in a volume of 1.25% (v/v) Agri-dex crop oil concentrated to obtain 12× stock solutions. […] Application solutions were prepared by adding an appropriate amount of each stock solution (typically 1 mL) and diluted to the appropriate final concentrations with the addition of 10 mL of an aqueous mixture of 1.25% (v/v) Agri-dex crop oil concentrate so that the final spray solutions contained 1.25% (v/v) Agri-dex crop oil concentrate.
as §3
as §4, with “3” for “2”
(§7) Colby's equation was used to determine the herbicidal effects expected from the mixtures (Colby, S. R. 1967. Calculation of the synergistic and antagonistic response of herbicide combinations. Weeds 15:20-22.) .

[3] = system: DIGSA (Digitaria sanguinalis (L.) Scop., large crabgrass); assay: Example IV postemergence foliar-applied mixtures, general weed control, greenhouse: DIGSA
Experimental: as §1, with “Sun Gro Metro-Mix® 360 planting mixture, which typically has” for “a soil matrix prepared by mixing a loam or sandy loam soil (e.g., 43 percent silt, 19 percent clay, and 38 percent sand, with”, “6.0 to 6.8” for “about 8.1”, “30 percent,” for “1.5 percent) and calcareous grit in an 80 to 20 ratio. The soil matrix was contained”, “square” for “square centimters (cm^2) and a volume of 560 cubic”, “(cm^2).” for “(cm^3).”
as §5, §2, §6, §3
as §4, with “3” for “2”
as §7

[4] = system: VIOTR (Viola tricolor L., wild violet); assay: Example IV postemergence foliar-applied mixtures, general weed control, greenhouse: VIOTR; details: Compound A Benzyl Ester alone
Experimental: as §1, with “Sun Gro Metro-Mix® 360 planting mixture, which typically has” for “a soil matrix prepared by mixing a loam or sandy loam soil (e.g., 43 percent silt, 19 percent clay, and 38 percent sand, with”, “6.0 to 6.8” for “about 8.1”, “30 percent,” for “1.5 percent) and calcareous grit in an 80 to 20 ratio. The soil matrix was contained”, “square” for “square centimters (cm^2) and a volume of 560 cubic”, “(cm^2).” for “(cm^3).”
as §5, §2, §6
All stock solutions and applications solutions were visually inspected for compound compatibility prior to application. Compound requirements are based upon a 12 mL application volume at a rate of 187 liters per hectare (L/ha). […]
as §4, with “3” for “2”, “kill. […]” for “kill.”

[5] = Compound A Benzyl Ester 2 gae/ha alone, 18 DAA
[6] = Compound A Benzyl Ester 4 gae/ha alone, 18 DAA
[7] = Compound A Benzyl Ester 8 gae/ha alone, 18 DAA
[8] = Compound A Benzyl Ester 16 gae/ha alone, 18 DAA
[9] = Compound A Benzyl Ester 32 gae/ha alone, 18 DAA
[10] = Compound A Benzyl Ester alone, 2 gae/ha
[11] = Compound A Benzyl Ester alone, 4 gae/ha

How did the “Visual Weed Control (%) - 16 DAA AVEFA Obs” value ([1]; Compound A Acid alone, 3.75 gae/ha) turn out when `COc1c(Cl)ccc(-c2nc(C(=O)O)c(Cl)c(N)c2F)c1F` [Compound A Acid, 4-amino-3-chloro-6-(4-chloro-2-fluoro-3-methoxyphenyl)-5-fluoropyridine-2-carboxylic acid] was run?
Its value is 0%.

What about the “Visual Weed Control (%) - 16 DAA AVEFA Obs” value ([1]; Compound A Acid alone, 7.5 gae/ha) of the same compound?
The value was 0%.

And the “Visual Weed Control (%) - 16 DAA AVEFA Obs” value ([1]; Compound A Acid alone, 15 gae/ha)?
Its value is 10%.

Which “Visual Weed Control (%) - 16 DAA AVEFA Obs” value ([1]; glufosinate ammonium alone, 28.25 gae/ha) does the source give for `CP(=O)(O)CCC(N)C(=O)O` (centres unmarked) [Glufosinate ammonium salt, 2-amino-4-(hydroxymethylphosphinyl)butanoic acid monoammonium salt, reference compound] here?
Its value is 0%.

And the “Visual Weed Control (%) - 16 DAA AVEFA Obs” value ([1]; glufosinate ammonium alone, 56.5 gae/ha)?
The value was 0%.

What about the “VisualWeed Control (%) - 18 DAA SETFA Obs” value (“VisualWeed Control (%)” for short) ([2]; Glufosinate ammonium salt 450 gai/ha alone, 18 DAA) of the same compound?
Its value is 60%.

What about the “Visual Weed Control (%) - 18 DAA DIGSA Obs” value ([3]; Glufosinate ammonium salt 225 gai/ha alone, 18 DAA) of the same compound?
Its value is 25%.

With `COc1c(Cl)ccc(-c2nc(C(=O)OCc3ccccc3)c(Cl)c(N)c2F)c1F` [Compound A Benzyl Ester] as the compound, how does the “Visual Weed Control (%) - 18 DAA VIOTR Obs” value ([4]; 2 gae/ha) read?
The value was 15%.

And the “Visual Weed Control (%) - 18 DAA VIOTR Obs” value ([4]; 4 gae/ha)?
The value was 20%.

What about the “VisualWeed Control (%)” value [2, 5] of the same compound?
The value was 40%.

And the “VisualWeed Control (%)” value [2, 6]?
The value was 40%.

And the “VisualWeed Control (%)” value [2, 7]?
The value was 75%.

What about the “VisualWeed Control (%)” value [2, 8] of the same compound?
The value was 85%.

And the “VisualWeed Control (%)” value [2, 9]?
The value was 90%.

And the “VisualWeed Control (%)” value [2, 10]?
The value was 40%.

What about the “VisualWeed Control (%)” value [2, 11] of the same compound?
Its value is 40%.

What about the “Visual Weed Control (%) - 18 DAA DIGSA Obs” value [3, 5] of the same compound?
The value was 0%.

What about the “Visual Weed Control (%) - 18 DAA DIGSA Obs” value [3, 6] of the same compound?
The value was 0%.

What about the “Visual Weed Control (%) - 18 DAA DIGSA Obs” value [3, 7] of the same compound?
The value was 0%.

What about the “Visual Weed Control (%) - 18 DAA DIGSA Obs” value [3, 8] of the same compound?
The value was 0%.

What about the “Visual Weed Control (%) - 18 DAA DIGSA Obs” value [3, 9] of the same compound?
Its value is 30%.

What about the “Visual Weed Control (%) - 18 DAA DIGSA Obs” value [3, 10] of the same compound?
The value was 0%.

What about the “Visual Weed Control (%) - 18 DAA DIGSA Obs” value [3, 11] of the same compound?
Its value is 0%.

What about the “Visual Weed Control (%) - 18 DAA DIGSA Obs” value ([3]; Compound A Benzyl Ester alone, 8 gae/ha) of the same compound?
The value was 0%.

What about the “Visual Weed Control (%) - 18 DAA DIGSA Obs” value ([3]; Compound A Benzyl Ester alone, 16 gae/ha) of the same compound?
Its value is 0%.

What about the “Visual Weed Control (%) - 18 DAA DIGSA Obs” value ([3]; Compound A Benzyl Ester alone, 32 gae/ha) of the same compound?
The value was 30%.
